Publication PMC13210772, “Dual FLT3/MAPK14 Proteolysis-Targeting Chimera (PROTAC) Induces Potent Acute Myeloid Leukemia Cell Death” (Pharmaceuticals, 2026)

Columns and labels:
[1] = in vitro; details: CD-1, mouse, liver microsomes, pH 7.4
[2] = Metabolic stability in liver microsomes
[3] = Non-enzymatic stability under cellular assay conditions (HPLC); assay type: physicochemical; details: compound remaining, assay medium DMEM, 37 °C
Method: An important aspect in the development of PROTACs is testing chemical stability. On the one hand, we tested all PROTACs produced for their stability under cellular assay conditions. For this purpose, 10 µM solutions of the PROTACs and reference inhibitor were incubated for 72 h at 37 °C with the assay medium DMEM. The remaining amount of the compounds was determined by HPLC after 6, 12, 24, 48 and 72 h. The results of the stability studies are shown in Table S2 (Supplementary Information).
The developed compounds were diluted in the assay media consisting of a mixture of DMEM (50%), DMSO (10%) and acetonitrile (40%) at pH 7.4 and incubated at 37 °C for 72 h. The quantity of the compounds was measured after 6, 12, 24, 48, and 72 h by HPLC using an XTerra RP18 column ([…], 3.9 mm × 100 mm) from the manufacturer Waters (Milford, MA, USA) and two LC-10AD pumps, an SPD-M10AVP PDA detector, and an SIL-HT autosampler, all from the manufacturer Shimadzu (Kyoto, Japan).

[4] = biological target: T1, FLT3-ITD (Homo sapiens, UniProt P36888, INS600HVDFREYEYD); experiment: FLT3-ITD degradation, immunoblot in MV4-11 cells; details: for inhibition at 0.05 µM: MV4-11, 24 h, read-out: % FLT3-ITD Degradation at 50 nM
T1 sequence (P36888 with tags, fused parts or gaps INS600HVDFREYEYD): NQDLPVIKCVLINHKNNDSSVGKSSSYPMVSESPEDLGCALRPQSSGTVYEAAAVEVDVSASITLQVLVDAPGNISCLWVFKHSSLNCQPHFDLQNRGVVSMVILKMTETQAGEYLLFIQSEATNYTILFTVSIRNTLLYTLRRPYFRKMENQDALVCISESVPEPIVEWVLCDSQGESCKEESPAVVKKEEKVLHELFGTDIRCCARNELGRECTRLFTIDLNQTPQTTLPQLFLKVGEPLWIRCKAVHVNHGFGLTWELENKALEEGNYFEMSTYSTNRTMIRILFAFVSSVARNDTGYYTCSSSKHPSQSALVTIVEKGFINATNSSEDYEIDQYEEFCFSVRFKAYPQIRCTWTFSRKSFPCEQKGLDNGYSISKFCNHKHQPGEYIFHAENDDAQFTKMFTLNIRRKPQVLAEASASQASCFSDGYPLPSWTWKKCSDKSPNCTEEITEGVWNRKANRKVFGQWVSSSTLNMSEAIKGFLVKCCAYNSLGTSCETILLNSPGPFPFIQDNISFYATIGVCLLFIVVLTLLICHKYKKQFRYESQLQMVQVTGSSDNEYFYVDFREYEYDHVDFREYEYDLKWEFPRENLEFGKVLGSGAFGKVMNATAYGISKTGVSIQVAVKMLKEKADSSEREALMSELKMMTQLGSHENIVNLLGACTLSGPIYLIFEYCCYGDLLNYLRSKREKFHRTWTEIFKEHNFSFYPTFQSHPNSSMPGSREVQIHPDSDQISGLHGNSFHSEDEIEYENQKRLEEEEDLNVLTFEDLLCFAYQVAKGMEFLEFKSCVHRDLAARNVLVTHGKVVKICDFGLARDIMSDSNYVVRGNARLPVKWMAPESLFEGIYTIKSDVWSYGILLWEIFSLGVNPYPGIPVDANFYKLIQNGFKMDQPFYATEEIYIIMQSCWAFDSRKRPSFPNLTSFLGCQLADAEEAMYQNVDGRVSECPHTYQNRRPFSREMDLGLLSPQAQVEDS

[5] = system: FLT3-ITD; experiment: KINOMEscan binding assay
Method: Binding to FLT3-ITD was determined using the KINOMEscan^TM assay (Eurofins DiscoverX Corporation, San Diego, CA, USA)
Kinase-tagged T7 phage strains were prepared in an E. coli host derived from the BL21 strain. E. coli were grown to log-phase and infected with T7 phage and incubated with shaking at 32 °C until lysis. The lysates were centrifuged and filtered to remove cell debris. The remaining kinases were produced in HEK-293 cells and subsequently tagged with DNA for qPCR detection. […] The liganded beads were blocked with excess biotin and washed with blocking buffer (SeaBlock (Pierce), 1% BSA, 0.05% Tween 20, 1 mM DTT) to remove unbound ligand and to reduce non-specific binding. […] The compounds were then diluted directly into the assays such that the final concentration of DMSO was 0.9%. All reactions performed in polypropylene 384-well plate. Each was a final volume of 0.02 mL. […] The kinase concentration in the eluates was measured by qPCR.

SMILES | 0 h - % [3] [%] | 6 h- % [3] [%] | 12 h- % [3] [%] | 24 h- % [3] [%] | 48 h- % [3] [%] | 72 h- % [3] [%] | inhibition at 0.05 µM [4] [%] | % FLT3-ITD Binding at 1 µM [5] [%] | further results
O=C(O)Cc1ccccc1Nc1c(Cl)cccc1Cl [Diclofenac, Diclofenac sodium, reference compound] | – | – | – | – | – | – | – | – | remaining at 10 min, 25 µM [1]: 94.7 ± 1.7%; remaining at 0.5 h, 25 µM [1]: 78%; remaining at 1 h, 25 µM [1]: 73%; remaining at 2 h, 25 µM [1]: 59%; 0 min—Compound Remaining % ([2]; mouse (CD-1) liver microsomes, 25 μM, 0 min): 100%; 30 min—Compound Remaining % ([2]; mouse (CD-1) liver microsomes, 25 μM, 30 min): 79.0 ± 1.3%; 120 min—Compound Remaining % ([2]; mouse (CD-1) liver microsomes, 25 μM, 120 min): 60.8 ± 2.2%; 0 min - compound remaining % ([2]; single runs A and B (Table S3), 0 min): 100%; 10 min - compound remaining % ([2]; single runs A and B (Table S3), 10 min): 96%; 30 min - compound remaining % ([2]; single runs A and B (Table S3), 30 min, listed as Diclofenac_A): 80%
Cc1ncsc1-c1ccc([C@H](C)NC(=O)[C@@H]2C[C@@H](O)CN2C(=O)[C@@H](NC(=O)CCCCCCCNC(=O)c2cc(Oc3ccc(NC(=O)Nc4cccc(C(F)(F)F)c4)cc3)ccn2)C(C)(C)C)cc1 [MA42, N-(8-(((S)-1-((2S,4R)-4-Hydroxy-2-(((S)-1-(4-(4-methylthiazol-5-yl)phenyl)ethyl)carbamoyl)-pyrrolidin-1-yl)-3,3-dimethyl-1-oxobutan-2-yl)amino)-8-oxooctyl)-4-(4-(3-(3-(trifluoromethyl)phenyl)ureido)phenoxy)picolinamide] | 100 | 99.7 | 100.0 | 100.2 | 100.8 | 101.0 | 30 | – | FLT3-ITD degradation ([4]; MV4-11 cells, 50 nM, 24 h): no significant degradation
Cc1ncsc1-c1ccc([C@H](C)NC(=O)[C@@H]2C[C@@H](O)CN2C(=O)[C@@H](NC(=O)CCCCCNC(=O)c2cc(Oc3ccc(NC(=O)Nc4cccc(C(F)(F)F)c4)cc3)ccn2)C(C)(C)C)cc1 [MA43, N-(6-(((S)-1-((2S,4R)-4-Hydroxy-2-(((S)-1-(4-(4-methylthiazol-5-yl)phenyl)ethyl)carbamoyl)-pyrrolidin-1-yl)-3,3-dimethyl-1-oxobutan-2-yl)amino)-6-oxohexyl)-4-(4-(3-(3-(trifluoromethyl)phenyl)ureido)phenoxy)picolinamide] | 100 | 100.1 | 100.3 | 100.5 | 101.0 | 101.2 | 20 | – | FLT3-ITD degradation ([4]; MV4-11 cells, 50 nM, 24 h): no significant degradation
Cc1ncsc1-c1ccc([C@H](C)NC(=O)[C@@H]2C[C@@H](O)CN2C(=O)[C@@H](NC(=O)CCCCCCCNC(=O)c2cc(Oc3ccc(NC(=O)Nc4cc(C(C)(C)C)on4)cc3)ccn2)C(C)(C)C)cc1 [MA73, 4-(4-(3-(5-(tert-Butyl)isoxazol-3-yl)ureido)phenoxy)-N-(8-(((S)-1-((2S,4R)-4-hydroxy-2-(((S)-1-(4-(4-methylthiazol-5-yl)phenyl)ethyl)carbamoyl)pyrrolidin-1-yl)-3,3-dimethyl-1-oxobutan-2-yl)amino)-8-oxooctyl)picolinamide] | 100 | 101.2 | 101.3 | 102.2 | 103.3 | 106.1 | 80 | 84 ± 1 | –
Cc1ncsc1-c1ccc([C@H](C)NC(=O)[C@@H]2C[C@@H](O)CN2C(=O)[C@@H](NC(=O)CCOCCOCCNC(=O)c2cc(Oc3ccc(NC(=O)Nc4cc(C(C)(C)C)on4)cc3)ccn2)C(C)(C)C)cc1 [MA74, 4-(4-(3-(5-(tert-Butyl)isoxazol-3-yl)ureido)phenoxy)-N-(2-(2-(3-(((S)-1-((2S,4R)-4-hydroxy-2-(((S)-1-(4-(4-methylthiazol-5-yl)phenyl)ethyl)carbamoyl)pyrrolidin-1-yl)-3,3-dimethyl-1-oxobutan-2-yl)amino)-3-oxopropoxy)ethoxy)ethyl)picolinamide] | 100 | 101.4 | 101.4 | 101.8 | 102.6 | 103.1 | 90 | 89 ± 2 | –
Cc1ncsc1-c1ccc([C@H](C)NC(=O)[C@@H]2C[C@@H](O)CN2C(=O)[C@@H](NC(=O)CCCCCCNC(=O)c2cc(Oc3ccc(NC(=O)Nc4cc(C(C)(C)C)on4)cc3)ccn2)C(C)(C)C)cc1 [MA77, 4-(4-(3-(5-(tert-Butyl)isoxazol-3-yl)ureido)phenoxy)-N-(7-(((S)-1-((2S,4R)-4-hydroxy-2-(((S)-1-(4-(4-methylthiazol-5-yl)phenyl)ethyl)carbamoyl)pyrrolidin-1-yl)-3,3-dimethyl-1-oxobutan-2-yl)amino)-7-oxoheptyl)picolinamide] | 100 | 99.6 | 99.6 | 99.9 | 100.5 | 100.7 | 80 | 89 ± 2 | –
Cc1ncsc1-c1ccc([C@H](C)NC(=O)[C@@H]2C[C@@H](O)CN2C(=O)[C@@H](NC(=O)CCCCCNC(=O)c2cc(Oc3ccc(NC(=O)Nc4cc(C(C)(C)C)on4)cc3)ccn2)C(C)(C)C)cc1 [MA78, 4-(4-(3-(5-(tert-Butyl)isoxazol-3-yl)ureido)phenoxy)-N-(6-(((S)-1-((2S,4R)-4-hydroxy-2-(((S)-1-(4-(4-methylthiazol-5-yl)phenyl)ethyl)carbamoyl)pyrrolidin-1-yl)-3,3-dimethyl-1-oxobutan-2-yl)amino)-6-oxohexyl)picolinamide] | 100 | 99.5 | 99.5 | 99.9 | 100.6 | 101.0 | 80 | 89 ± 2 | –
Cc1ncsc1-c1ccc([C@H](C)NC(=O)[C@H]2C[C@H](O)CN2C(=O)[C@@H](NC(=O)[C@H]2CC[C@H](C(=O)N3CCC(CCNC(=O)c4cc(Oc5ccc(NC(=O)Nc6cc(C(C)(C)C)on6)cc5)ccn4)CC3)CC2)C(C)(C)C)cc1 [MA224, 4-(4-(3-(5-(tert-Butyl)isoxazol-3-yl)ureido)phenoxy)-N-(2-(1-(trans-4-(((S)-1-((2R,4S)-4-hydroxy-2-(((S)-1-(4-(4-methylthiazol-5-yl)phenyl)ethyl)carbamoyl)pyrrolidin-1-yl)-3,3-dimethyl-1-oxobutan-2-yl)carbamoyl)cyclohexanecarbonyl)piperidin-4-yl)ethyl)picolinamide] | – | – | – | – | – | – | – | – | % FLT3-ITD Degradation at 50 nM ([4]; MV4-11 cells, 50 nM, 24 h): No effect
NS(=O)(=O)OC[C@@H]1C[C@@H](n2ccc3c(N[C@H]4CCc5ccccc54)ncnc32)C[C@@H]1O [MLN4924, reference compound] | – | – | – | – | – | – | – | – | rescue of MA191-mediated degradation ([4]; 50 nM MA191 ± 3 µM MLN4924, 6 h, MV4-11 and MOLM-13 cells): prevented the MA191-mediated degradation of FLT3-ITD as well as MAPK14
